The record followed here is PubChem BioAssay AID624142 (National Center for Advancing Translational Sciences (NCATS), 2012).

For the data set, the system named is human liver microsomes, half-life, LC-MS/MS. Description: qHTS Assay to Find Inhibitors of T. brucei phosphofructokinase: Human Liver Microsome Stability. The note with it: at 1 µM; active compounds read high. In general terms: In qHTS, concentration-response curves come from the screen itself.

The term half-life denotes the time needed for the level to fall by half in the phase considered.

Each structure is given as a SMILES string.

Consider `O=C(Cc1ccc(Cl)c(Cl)c1)Nc1ccc(S(=O)(=O)Nc2ccon2)cc1`, for which the half-life was 5.5 h.
